{
  "source": "ChEMBL document CHEMBL2203073",
  "about": "“Synthesis and biological evaluation of 4,4-dimethyl lithocholic acid derivatives as novel inhibitors of protein tyrosine phosphatase 1B” (Bioorg Med Chem Lett, 2012)",
  "key": {"[1]": {"molecular_target": "T1, Tyrosine-protein phosphatase non-receptor type 2 (Homo sapiens, UniProt P17706)", "T1 sequence (P17706 whole entry)": "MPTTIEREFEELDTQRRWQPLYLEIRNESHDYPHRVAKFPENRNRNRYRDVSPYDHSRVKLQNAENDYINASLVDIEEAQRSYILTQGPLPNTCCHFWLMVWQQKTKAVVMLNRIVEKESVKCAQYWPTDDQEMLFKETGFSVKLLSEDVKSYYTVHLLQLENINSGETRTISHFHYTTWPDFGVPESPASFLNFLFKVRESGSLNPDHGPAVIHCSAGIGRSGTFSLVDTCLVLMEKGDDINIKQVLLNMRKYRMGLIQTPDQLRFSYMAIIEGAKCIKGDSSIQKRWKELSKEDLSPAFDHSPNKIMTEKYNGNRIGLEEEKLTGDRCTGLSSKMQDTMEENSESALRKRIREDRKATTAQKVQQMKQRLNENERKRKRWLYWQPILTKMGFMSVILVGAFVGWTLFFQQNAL", "test": "Inhibition of TCPTP by para-nitrophenyl phosphate release assay"}, "[2]": {"test": "Selectivity index, ratio of IC50 for TCPTP to PTP1B"}, "[3]": {"molecular_target": "T2, Tyrosine-protein phosphatase non-receptor type 1 (Homo sapiens, UniProt P18031)", "T2 sequence (P18031 whole entry)": "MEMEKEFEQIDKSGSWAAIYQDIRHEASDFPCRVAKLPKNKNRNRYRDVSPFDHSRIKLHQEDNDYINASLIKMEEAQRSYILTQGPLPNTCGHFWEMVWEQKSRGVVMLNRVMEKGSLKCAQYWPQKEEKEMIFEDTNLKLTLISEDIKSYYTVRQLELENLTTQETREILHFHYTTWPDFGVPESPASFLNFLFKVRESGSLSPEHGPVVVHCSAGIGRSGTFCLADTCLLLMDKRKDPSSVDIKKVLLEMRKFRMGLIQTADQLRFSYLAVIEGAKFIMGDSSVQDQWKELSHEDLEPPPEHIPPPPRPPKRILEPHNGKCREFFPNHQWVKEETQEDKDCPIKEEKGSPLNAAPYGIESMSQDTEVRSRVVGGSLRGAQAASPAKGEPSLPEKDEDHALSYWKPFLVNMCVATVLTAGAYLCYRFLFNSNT", "test": "Inhibition of PTP1B by para-nitrophenyl phosphate release assay"}, "[4]": {"molecular_target": "Receptor-type tyrosine-protein phosphatase F (Homo sapiens) (UniProt P10586)", "sequence (P10586 whole entry)": "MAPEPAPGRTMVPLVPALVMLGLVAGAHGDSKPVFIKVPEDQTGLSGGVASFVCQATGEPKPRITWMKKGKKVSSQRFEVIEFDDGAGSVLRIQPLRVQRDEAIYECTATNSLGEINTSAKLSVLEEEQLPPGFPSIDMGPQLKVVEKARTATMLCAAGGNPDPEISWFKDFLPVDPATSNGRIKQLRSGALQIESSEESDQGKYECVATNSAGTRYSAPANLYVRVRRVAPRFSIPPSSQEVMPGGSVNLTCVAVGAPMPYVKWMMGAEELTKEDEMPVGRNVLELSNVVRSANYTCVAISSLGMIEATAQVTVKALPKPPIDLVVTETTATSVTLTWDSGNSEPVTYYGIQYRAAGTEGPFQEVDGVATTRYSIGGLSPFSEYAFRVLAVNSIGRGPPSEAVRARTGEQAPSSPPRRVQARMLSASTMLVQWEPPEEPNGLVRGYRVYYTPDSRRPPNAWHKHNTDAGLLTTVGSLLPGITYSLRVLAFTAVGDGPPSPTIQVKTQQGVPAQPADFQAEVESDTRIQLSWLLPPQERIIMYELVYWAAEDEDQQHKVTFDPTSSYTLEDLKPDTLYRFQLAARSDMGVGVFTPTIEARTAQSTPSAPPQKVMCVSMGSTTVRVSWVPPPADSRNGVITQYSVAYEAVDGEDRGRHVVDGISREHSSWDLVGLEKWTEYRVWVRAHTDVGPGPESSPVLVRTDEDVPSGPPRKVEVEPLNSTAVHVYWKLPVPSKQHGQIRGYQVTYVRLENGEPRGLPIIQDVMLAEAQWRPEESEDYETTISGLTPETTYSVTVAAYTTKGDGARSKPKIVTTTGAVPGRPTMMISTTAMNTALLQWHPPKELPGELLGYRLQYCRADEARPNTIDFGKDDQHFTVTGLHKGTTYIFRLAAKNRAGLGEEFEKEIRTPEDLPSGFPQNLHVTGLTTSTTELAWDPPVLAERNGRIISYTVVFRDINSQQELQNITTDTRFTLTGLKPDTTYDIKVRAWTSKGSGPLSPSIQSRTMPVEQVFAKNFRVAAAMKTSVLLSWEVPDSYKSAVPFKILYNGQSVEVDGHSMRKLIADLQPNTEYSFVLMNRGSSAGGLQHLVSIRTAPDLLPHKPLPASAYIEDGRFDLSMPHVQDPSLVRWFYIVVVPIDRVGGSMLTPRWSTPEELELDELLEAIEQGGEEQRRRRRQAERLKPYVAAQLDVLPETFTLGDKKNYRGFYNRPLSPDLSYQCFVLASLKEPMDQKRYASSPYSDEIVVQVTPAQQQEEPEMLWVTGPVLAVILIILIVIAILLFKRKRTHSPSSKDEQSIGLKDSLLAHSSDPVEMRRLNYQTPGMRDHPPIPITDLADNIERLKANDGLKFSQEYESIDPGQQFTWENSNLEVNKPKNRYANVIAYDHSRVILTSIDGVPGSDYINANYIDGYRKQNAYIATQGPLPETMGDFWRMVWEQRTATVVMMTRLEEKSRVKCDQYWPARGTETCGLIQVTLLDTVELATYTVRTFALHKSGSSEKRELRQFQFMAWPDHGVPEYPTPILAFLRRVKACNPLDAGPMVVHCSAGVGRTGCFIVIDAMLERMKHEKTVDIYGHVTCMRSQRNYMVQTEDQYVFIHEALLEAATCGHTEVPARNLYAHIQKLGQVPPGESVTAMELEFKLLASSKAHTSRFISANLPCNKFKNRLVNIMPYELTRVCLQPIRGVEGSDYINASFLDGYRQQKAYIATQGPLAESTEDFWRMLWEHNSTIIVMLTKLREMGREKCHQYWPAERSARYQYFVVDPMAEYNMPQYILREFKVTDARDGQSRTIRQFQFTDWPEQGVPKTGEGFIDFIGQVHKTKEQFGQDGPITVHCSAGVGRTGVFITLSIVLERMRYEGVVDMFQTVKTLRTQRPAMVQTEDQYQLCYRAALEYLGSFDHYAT", "test": "Inhibition of LAR at 40 uM"}, "[5]": {"molecular_target": "Tyrosine-protein phosphatase non-receptor type 6 (Homo sapiens) (UniProt P29350)", "sequence (P29350 whole entry)": "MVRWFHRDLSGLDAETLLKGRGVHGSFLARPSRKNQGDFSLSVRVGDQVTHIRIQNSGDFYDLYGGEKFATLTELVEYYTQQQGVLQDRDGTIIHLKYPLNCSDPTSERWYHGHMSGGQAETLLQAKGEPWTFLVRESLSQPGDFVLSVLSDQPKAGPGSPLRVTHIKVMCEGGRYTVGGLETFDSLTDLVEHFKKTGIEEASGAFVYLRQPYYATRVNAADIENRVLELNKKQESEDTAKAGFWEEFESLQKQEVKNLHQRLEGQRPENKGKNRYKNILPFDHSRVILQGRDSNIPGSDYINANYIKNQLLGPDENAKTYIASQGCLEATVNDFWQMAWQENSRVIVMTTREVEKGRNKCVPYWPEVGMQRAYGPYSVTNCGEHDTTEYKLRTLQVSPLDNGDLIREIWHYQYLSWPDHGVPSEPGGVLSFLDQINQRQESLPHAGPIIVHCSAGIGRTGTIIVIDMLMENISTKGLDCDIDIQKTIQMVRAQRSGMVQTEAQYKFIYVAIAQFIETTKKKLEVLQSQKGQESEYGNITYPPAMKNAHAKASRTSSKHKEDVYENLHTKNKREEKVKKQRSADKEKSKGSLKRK", "test": "Inhibition of SHP1 at 40 uM"}, "[6]": {"molecular_target": "T3, Tyrosine-protein phosphatase non-receptor type 11 (Homo sapiens) (UniProt Q06124)", "T3 sequence (whole entry)": "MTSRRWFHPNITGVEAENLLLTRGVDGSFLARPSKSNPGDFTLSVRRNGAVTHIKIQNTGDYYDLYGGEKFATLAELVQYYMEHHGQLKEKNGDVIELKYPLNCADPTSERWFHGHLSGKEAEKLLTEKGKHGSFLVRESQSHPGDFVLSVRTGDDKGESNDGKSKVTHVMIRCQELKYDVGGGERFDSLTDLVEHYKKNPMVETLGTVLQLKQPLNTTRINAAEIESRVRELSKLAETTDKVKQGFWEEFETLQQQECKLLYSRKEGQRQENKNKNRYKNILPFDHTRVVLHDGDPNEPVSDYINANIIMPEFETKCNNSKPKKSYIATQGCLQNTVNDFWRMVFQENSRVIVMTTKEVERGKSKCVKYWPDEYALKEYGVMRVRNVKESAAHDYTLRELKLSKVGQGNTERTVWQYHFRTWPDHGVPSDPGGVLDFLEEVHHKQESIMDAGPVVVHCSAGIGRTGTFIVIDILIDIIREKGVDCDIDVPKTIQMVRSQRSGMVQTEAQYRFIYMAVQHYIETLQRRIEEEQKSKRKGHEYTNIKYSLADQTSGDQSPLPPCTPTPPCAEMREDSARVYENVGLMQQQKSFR", "test": "Inhibition of SHP2 at 40 uM"}, "[7]": {"molecular_target": "T2, Tyrosine-protein phosphatase non-receptor type 1", "test": "Competitive inhibition of PTP1B by para-nitrophenyl phosphate release assay"}},
  "data": [
    {"smiles": "COC(=O)CC[C@@H](C)[C@H]1CC[C@H]2[C@@H]3CC=C4C(C)(C)C(=O)CC[C@]4(C)[C@H]3CC[C@]12C", "values": [
      {"measurement": "IC50", "setting": "[1]", "result": "> 50", "unit": "µM"},
      {"measurement": "Ratio IC50", "setting": "[2]", "result": "> 3.8"},
      {"measurement": "IC50", "setting": "[3]", "result": 13.2, "unit": "µM"}
    ]},
    {"smiles": "Cc1ncc2c(n1)C(C)(C)C1=CC[C@H]3[C@@H]4CC[C@H]([C@H](C)CCC(=O)O)[C@@]4(C)CC[C@@H]3[C@@]1(C)C2", "values": [
      {"measurement": "IC50", "setting": "[1]", "result": 11.5, "unit": "µM"},
      {"measurement": "Ratio IC50", "setting": "[2]", "result": 1.2},
      {"measurement": "IC50", "setting": "[3]", "result": 9.11, "unit": "µM"}
    ]},
    {"smiles": "C[C@H](CCC(=O)O)[C@H]1CC[C@H]2[C@@H]3CC=C4C(C)(C)c5oncc5C[C@]4(C)[C@H]3CC[C@]12C", "values": [
      {"measurement": "IC50", "setting": "[1]", "result": 46.6, "unit": "µM"},
      {"measurement": "Ratio IC50", "setting": "[2]", "result": 5.1},
      {"measurement": "IC50", "setting": "[3]", "result": 9.13, "unit": "µM"}
    ]},
    {"smiles": "C[C@H](CCC(=O)O)[C@H]1CC[C@H]2[C@@H]3CC[C@@H]4C[C@H](O)CC[C@]4(C)[C@H]3CC[C@]12C", "note": "[LITHOCHOLIC ACID]", "values": [
      {"measurement": "IC50", "setting": "[1]", "result": 20.4, "unit": "µM"},
      {"measurement": "Ratio IC50", "setting": "[2]", "result": 1.6},
      {"measurement": "IC50", "setting": "[3]", "result": 12.7, "unit": "µM"}
    ]},
    {"smiles": "O=C(O)C(=O)c1ccc(OCc2ccc(COc3ccc(C(=O)C(=O)O)cc3)cc2)cc1", "values": [
      {"measurement": "Ratio IC50", "setting": "[2]", "result": 1.6}
    ]},
    {"smiles": "C[C@H](CCC(=O)O)[C@H]1CC[C@H]2[C@@H]3CC=C4C(C)(C)c5nc(N)ncc5C[C@]4(C)[C@H]3CC[C@]12C", "values": [
      {"measurement": "IC50", "setting": "[1]", "result": 17.1, "unit": "µM"},
      {"measurement": "Ratio IC50", "setting": "[2]", "result": 5},
      {"measurement": "IC50", "setting": "[3]", "result": 3.61, "unit": "µM"}
    ]},
    {"smiles": "COC(=O)CC[C@@H](C)[C@H]1CC[C@H]2[C@@H]3CC=C4C(C)(C)c5nccnc5C[C@]4(C)[C@H]3CC[C@]12C", "values": [
      {"measurement": "IC50", "setting": "[1]", "result": "> 40", "unit": "µM"},
      {"measurement": "Ratio IC50", "setting": "[2]", "result": "> 1.4"},
      {"measurement": "IC50", "setting": "[3]", "result": 28.2, "unit": "µM"}
    ]},
    {"smiles": "COC(=O)CC[C@@H](C)[C@H]1CC[C@H]2[C@@H]3CC=C4C(C)(C)c5nc(N)sc5C[C@]4(C)[C@H]3CC[C@]12C", "values": [
      {"measurement": "IC50", "setting": "[1]", "result": "> 40", "unit": "µM"},
      {"measurement": "Ratio IC50", "setting": "[2]", "result": "> 4.4"},
      {"measurement": "IC50", "setting": "[3]", "result": 9.04, "unit": "µM"}
    ]},
    {"smiles": "C[C@H](CCC(=O)O)[C@H]1CC[C@H]2[C@@H]3CC=C4C(C)(C)c5nc(N)sc5C[C@]4(C)[C@H]3CC[C@]12C", "values": [
      {"measurement": "IC50", "setting": "[1]", "result": 11, "unit": "µM"},
      {"measurement": "Ratio IC50", "setting": "[2]", "result": 2},
      {"measurement": "IC50", "setting": "[3]", "result": 5.57, "unit": "µM"}
    ]},
    {"smiles": "CCOC(=O)CC[C@@H](C)[C@H]1CC[C@H]2[C@@H]3CC=C4C(C)(C)c5nc(N)ncc5C[C@]4(C)[C@H]3CC[C@]12C", "values": [
      {"measurement": "IC50", "setting": "[1]", "result": "> 40", "unit": "µM"},
      {"measurement": "IC50", "setting": "[3]", "result": "> 40", "unit": "µM"}
    ]},
    {"smiles": "C[C@H](CCC(=O)O)[C@H]1CC[C@H]2[C@@H]3CC=C4C(C)(C)c5nccnc5C[C@]4(C)[C@H]3CC[C@]12C", "values": [
      {"measurement": "IC50", "setting": "[1]", "result": 23.8, "unit": "µM"},
      {"measurement": "Ratio IC50", "setting": "[2]", "result": 2.8},
      {"measurement": "IC50", "setting": "[3]", "result": 8.62, "unit": "µM"}
    ]},
    {"smiles": "C[C@H](CCC(=O)O)[C@H]1CC[C@H]2[C@@H]3CC=C4C(C)(C)C(=O)CC[C@]4(C)[C@H]3CC[C@]12C", "values": [
      {"measurement": "IC50", "setting": "[1]", "result": "> 50", "unit": "µM"},
      {"measurement": "IC50", "setting": "[3]", "result": 13.2, "unit": "µM"}
    ]},
    {"smiles": "C[C@H](CCC(=O)O)[C@H]1CC[C@H]2[C@@H]3CC=C4C(C)(C)c5c(cnn5-c5ccccc5)C[C@]4(C)[C@H]3CC[C@]12C", "values": [
      {"measurement": "IC50", "setting": "[1]", "result": 22.8, "unit": "µM"},
      {"measurement": "Ratio IC50", "setting": "[2]", "result": 14.1},
      {"measurement": "inhibition", "setting": "[4]", "result": 26.9, "unit": "%"},
      {"measurement": "inhibition", "setting": "[5]", "result": 0.97, "unit": "%"},
      {"measurement": "IC50", "setting": "[3]", "result": 1.62, "unit": "µM"},
      {"measurement": "inhibition", "setting": "[6]", "result": 9.36, "unit": "%"},
      {"measurement": "Ki", "setting": "[7]", "result": 0.84, "unit": "µM"}
    ]},
    {"smiles": "C[C@H](CCC(=O)O)[C@H]1CC[C@H]2[C@@H]3CC=C4C(C)(C)c5[nH]ncc5C[C@]4(C)[C@H]3CC[C@]12C", "values": [
      {"measurement": "IC50", "setting": "[1]", "result": 19.2, "unit": "µM"},
      {"measurement": "Ratio IC50", "setting": "[2]", "result": 4.7},
      {"measurement": "IC50", "setting": "[3]", "result": 4.11, "unit": "µM"}
    ]},
    {"smiles": "C[C@H](CCC(=O)O)[C@H]1CC[C@H]2[C@@H]3CC=C4C(C)(C)c5nnsc5C[C@]4(C)[C@H]3CC[C@]12C", "values": [
      {"measurement": "IC50", "setting": "[1]", "result": 36.6, "unit": "µM"},
      {"measurement": "Ratio IC50", "setting": "[2]", "result": 0.9},
      {"measurement": "IC50", "setting": "[3]", "result": 39.4, "unit": "µM"}
    ]},
    {"smiles": "C[C@H](CCC(=O)O)[C@H]1CC[C@H]2[C@@H]3CC=C4C(C)(C)c5ncncc5C[C@]4(C)[C@H]3CC[C@]12C", "values": [
      {"measurement": "IC50", "setting": "[1]", "result": 10.8, "unit": "µM"},
      {"measurement": "Ratio IC50", "setting": "[2]", "result": 0.9},
      {"measurement": "IC50", "setting": "[3]", "result": 11.6, "unit": "µM"}
    ]},
    {"smiles": "C[C@H](CCC(=O)O)[C@H]1CC[C@H]2[C@@H]3CC=C4C(C)(C)c5[nH]nc(C(=O)O)c5C[C@]4(C)[C@H]3CC[C@]12C", "values": [
      {"measurement": "IC50", "setting": "[1]", "result": 9, "unit": "µM"},
      {"measurement": "Ratio IC50", "setting": "[2]", "result": 0.9},
      {"measurement": "IC50", "setting": "[3]", "result": 9.27, "unit": "µM"}
    ]},
    {"smiles": "CCOC(=O)CC[C@@H](C)[C@H]1CC[C@H]2[C@@H]3CC=C4C(C)(C)c5[nH]ncc5C[C@]4(C)[C@H]3CC[C@]12C", "values": [
      {"measurement": "IC50", "setting": "[1]", "result": "> 40", "unit": "µM"},
      {"measurement": "Ratio IC50", "setting": "[2]", "result": "> 2.1"},
      {"measurement": "IC50", "setting": "[3]", "result": 19.2, "unit": "µM"}
    ]}
  ]
}
